Patent publication US8846928B2 (Portola Pharmaceuticals, Inc., priority 2010, dated 2014)

molecular target: T1, full length active recombinant SYK enzyme (Homo sapiens, UniProt P43405); experiment: Inhibition of Syk tyrosine phosphorylation activity (LANCE TR-FRET kinase assay); assay type: biochemical
T1 construct: full length active recombinant SYK enzyme (Millipore, Calif.); purchased Millipore

| SMILES | IC50 [nM] |
| --- | --- |
| NC(=O)c1cc(F)c(N[C@@H]2CCCC(F)(F)[C@@H]2N)nc1Nc1cnc2ccccc2c1 [Example 289, 6-((1R,2R)-2-amino-3,3-difluorocyclohexylamino)-5-fluoro-2-(quinolin-3-ylamino)nicotinamide] | 100 to 1000 |
| Cc1cc(Nc2cc(N[C@@H](C(N)=O)C3CC3)c(F)cc2C(N)=O)sn1 [Example 215, (R)-4-(2-amino-1-cyclopropyl-2-oxoethylamino)-5-fluoro-2-(3-methylisothiazol-5-ylamino)benzamide] | 10 to 100 |
| Cc1cc(Nc2nc(N[C@@H](C(N)=O)C3CC3)c(F)cc2C(N)=O)sn1 [Example 198, (R)-6-(2-amino-1-cyclopropyl-2-oxoethylamino)-5-fluoro-2-(3-methylisothiazol-5-ylamino)nicotinamide] | 10 to 100 |
| Cc1cncc(Nc2nc(N[C@@H]3CCCC(F)(F)[C@@H]3N)c(F)cc2C(N)=O)c1 [Example 332, 6-((1R,2R)-2-amino-3,3-difluorocyclohexylamino)-5-fluoro-2-(5-methylpyridin-3-ylamino)nicotinamide] | 100 to 1000 |
| CC[C@@H](Nc1nc(Nc2ccc3ccncc3c2)c(C(N)=O)cc1F)C(N)=O [Example 98, (R)-6-(1-amino-1-oxobutan-2-ylamino)-5-fluoro-2-(isoquinolin-7-ylamino)nicotinamide] | 10 to 100 |
| NC(=O)c1cc(F)c(N[C@H]2[C@@H](N)CCCC2(F)F)nc1Nc1cccc(-c2ncccn2)c1 [Example 342, 6-((1S,6S)-6-amino-2,2-difluorocyclohexylamino)-5-fluoro-2-(3-(pyrimidin-2-yl)phenylamino)nicotinamide] | 10 to 100 |
| N#Cc1cc(C(N)=O)c(Nc2ccc3ncsc3c2)nc1NC[C@@H](N)C1CC1 [Example 119, (S)-6-(2-amino-2-cyclopropylethylamino)-2-(benzo[d]thiazol-6-ylamino)-5-cyanonicotinamide] | 10 to 100 |
| C[C@H](CN)Nc1nc(Nc2ccc3ncccc3c2)c(C(N)=O)cc1C#N [Example 114, (R)-6-(1-aminopropan-2-ylamino)-5-cyano-2-(quinolin-6-ylamino)nicotinamide] | 10 to 100 |
| Cc1cc(Nc2cc(N[C@H](Cc3cccc(F)c3)C(N)=O)c(F)cc2C(N)=O)sn1 [Example 37, (R)-4-(1-amino-3-(3-fluorophenyl)-1-oxopropan-2-ylamino)-5-fluoro-2-(3-methylisothiazol-5-ylamino)benzamide] | 10 to 100 |
| NC(=O)c1ccc(N[C@@H]2CCCC[C@@H]2N)cc1Nc1cccc(-n2nccn2)c1 [Example 5] | 100 to 1000 |
| CC[C@@H](Nc1ccc(C(N)=O)c(Nc2cc(C)ns2)c1)C(N)=O [Example 33, (R)-4-(1-amino-1-oxobutan-2-ylamino)-2-(3-methylisothiazol-5-ylamino)benzamide] | 10 to 100 |
| CC(C)C[C@@H](Nc1nc(Nc2ccc3cccnc3c2)c(C(N)=O)cc1F)C(N)=O [Example 246, (R)-6-(1-amino-4-methyl-1-oxopentan-2-ylamino)-5-fluoro-2-(quinolin-7-ylamino)nicotinamide] | 10 to 100 |
| C[C@H](N)CNc1nc(Nc2cncc(F)c2)c(C(N)=O)cc1F [Example 261, (S)-2-(5-fluoropyridin-3-ylamino)-6-(2-aminopropylamino)-5-fluoronicotinamide] | 100 to 1000 |
| NC(=O)c1cc(F)c(NC2(C(N)=O)CCCC2)nc1Nc1cnc2ccccc2c1 [Example 376, 6-(1-carbamoylcyclopentylamino)-5-fluoro-2-(quinolin-3-ylamino)nicotinamide] | 100 to 1000 |
| NC(=O)c1cc(F)c(N[C@@H]2CCCC[C@@H]2N)nc1Nc1ccc(C(F)(F)F)nc1 [Example 176, 6-((1R,2S)-2-aminocyclohexylamino)-5-fluoro-2-(6-(trifluoromethyl)pyridin-3-ylamino)nicotinamide] | 10 to 100 |
| NC(=O)c1cc(F)c(N[C@@H]2CCCC[C@@H]2N)nc1Nc1csc2ccncc12 [Example 394, 6-((1R,2S)-2-aminocyclohexylamino)-5-fluoro-2-(thieno[3,2-c]pyridin-3-ylamino)nicotinamide] | 10 to 100 |
| Cc1cc(Nc2cc(N[C@@H](C(N)=O)C(C)C)ccc2C(N)=O)sn1 [Example 11, (R)-4-(1-amino-3-methyl-1-oxobutan-2-ylamino)-2-(3-methylisothiazol-5-ylamino)benzamide] | 100 to 1000 |
| NC(=O)c1cc(F)c(N[C@H](CC2CC2)C(N)=O)nc1Nc1cnc2ccccc2c1 [Example 251, (R)-6-(1-amino-3-cyclopropyl-1-oxopropan-2-ylamino)-5-fluoro-2-(quinolin-3-ylamino)nicotinamide] | 1 to 10 |
| Cn1ccc2c(Nc3nc(N[C@@H]4CCCC[C@@H]4N)ccc3C(N)=O)cccc21 [Example 396, 6-((1R,2S)-2-aminocyclohexylamino)-2-(1-methyl-1H-indol-4-ylamino)nicotinamide] | 1 to 10 |
| Cc1cc(Nc2cc(N[C@H](CC(C)C)C(N)=O)cc(F)c2C(N)=O)sn1 [Example 19, (R)-4-(1-amino-4-methyl-1-oxopentan-2-ylamino)-2-fluoro-6-(3-methylisothiazol-5-ylamino)benzamide] | > 1000 |
| CC[C@@H](Nc1nc(Nc2cnc3ncccc3c2)c(C(N)=O)cc1F)C(N)=O [Example 228, (R)-6-(1-amino-1-oxobutan-2-ylamino)-5-fluoro-2-(1,8-naphthyridin-3-ylamino)nicotinamide] | 10 to 100 |
| NC(=O)c1ccc(N[C@@H]2CCCC[C@@H]2N)cc1Nc1ccc(F)cc1 [Example 3, 4-((1R,2S)-2-aminocyclohexylamino)-2-(4-fluorophenylamino)benzamide] | > 1000 |
| Cc1cc(Nc2cc(N[C@H](CC3CC3)C(N)=O)c(F)cc2C(N)=O)sn1 [Example 25, (R)-4-(1-amino-3-cyclopropyl-1-oxopropan-2-ylamino)-5-fluoro-2-(3-methylisothiazol-5-ylamino)benzamide] | 10 to 100 |
| Cc1cncc(Nc2nc(NC[C@H](C)N)c(F)cc2C(N)=O)c1 [Example 260, (S)-2-(5-methylpyridin-3-ylamino)-6-(2-aminopropylamino)-5-fluoronicotinamide] | 10 to 100 |
| NC(=O)c1cc(F)c(N[C@@H]2CCCC[C@@H]2N)nc1Nc1ccncc1 [Example 175] | 10 to 100 |

Continued, values first:

| IC50 [nM] | SMILES |
| --- | --- |
| 1 to 10 | NC(=O)c1cc(F)c(N[C@@H]2CCCC[C@@H]2N)nc1Nc1cccc(OC2CCOCC2)c1 [Example 80, 6-((1R,2S)-2-aminocyclohexylamino)-5-fluoro-2-(3-(tetrahydro-2H-pyran-4-yloxy)phenylamino)nicotinamide] |
| 1 to 10 | CC(C)[C@H](CN)Nc1nc(Nc2ccc3ncccc3c2)c(C(N)=O)cc1C#N [Example 128, (R)-6-(1-amino-3-methylbuttan-2-ylamino)-5-cyano-2-(quinolin-6-ylamino)nicotinamide] |
| 1 to 10 | NC(=O)c1ccc(N[C@@H]2CCCC[C@@H]2N)nc1Nc1ccc2cccnc2c1 [Example 186, 6-((1R,2S)-2-aminocyclohexylamino)-2-(quinolin-7-ylamino)nicotinamide] |
| 1 to 10 | CC(C)C[C@H](CN)Nc1nc(Nc2ccc3ncsc3c2)c(C(N)=O)cc1C#N [Example 123, (R)-6-(1-amino-4-methylpentan-2-ylamino)-2-(benzo[d]thiazol-6-ylamino)-5-cyanonicotinamide] |
| 1 to 10 | NC(=O)c1cc(F)c(N[C@@H]2CCOC[C@@H]2N)nc1Nc1cccc(-n2nccn2)c1 [Example 279, 2-(3-(2H-1,2,3-triazol-2-yl)phenylamino)-6-((3R,4R)-3-aminotetrahydro-2H-pyran-4-ylamino)-5-fluoronicotinamide] |
| 1 to 10 | NC(=O)c1cc(F)c(N[C@@H]2CCCC[C@@H]2N)nc1Nc1ccnc2ccccc12 [Example 72] |
| 1 to 10 | C[C@H](N)CNc1nc(Nc2cccc(-n3cccn3)c2)c(C(N)=O)cc1F [Example 259, (S)-2-(3-(1H-pyrazol-1-yl)phenylamino)-6-(2-aminopropylamino)-5-fluoronicotinamide] |
| 1 to 10 | N#Cc1cc(C(N)=O)c(Nc2cccc(-c3ccccn3)c2)nc1N[C@@H]1CCCC[C@@H]1N [Example 131, 6-((1R,2S)-2-aminocyclohexylamino)-5-cyano-2-(3-(pyridin-2-yl)phenylamino)nicotinamide] |
| 1 to 10 | NC(=O)c1cc(F)c(N[C@@H]2CCCC[C@@H]2N)nc1Nc1ccc(-c2ccncn2)cc1 [Example 59, 6-(1R,2S)-2-aminocyclohexylamino)-5-fluoro-2-(4-(pyrimidin-4-yephenylamino)nicotinamide] |
| 1 to 10 | NC(=O)c1cc(F)c(N[C@@H]2CCCC[C@@H]2N)nc1Nc1cccc(F)c1 [Example 316, 6-((1R,2S)-2-aminocyclohexylamino)-5-fluoro-2-(3-fluorophenylamino)nicotinamide] |
| 1 to 10 | Cn1ncc2c(Nc3nc(N[C@H]4[C@@H](N)CCCC4(F)F)c(F)cc3C(N)=O)cccc21 [Example 389, 6-((1S,6S)-6-amino-2,2-difluorocyclohexylamino)-5-fluoro-2-(1-methyl-1H-indazol-4-ylamino)nicotinamide] |
| 1 to 10 | N#Cc1cc(C(N)=O)c(Nc2cccc(-c3ncccn3)c2)nc1N[C@@H]1CCCC[C@@H]1N [Example 130] |
| 1 to 10 | Cc1cc(Nc2nc(N[C@@H]3CCCC[C@@H]3N)c(F)cc2C(N)=O)ccc1F [Example 322, 6-((1R,2S)-2-aminocyclohexylamino)-5-fluoro-2-(4-fluoro-3-methylphenylamino)nicotinamide] |
| 1 to 10 | NC(=O)c1cc(F)c(N[C@@H]2CCCC[C@@H]2N)nc1Nc1cccc(-n2cccn2)c1 [Example 45, 2-(3-(1H-pyrazol-1-yl)phenylamino)-6-((1R,2S)-2-aminocyclohexylamino)-5-fluoronicotinamide] |
| 1 to 10 | CC(C)C[C@H](CN)Nc1nc(Nc2cccc(-n3nccn3)c2)c(C(N)=O)cc1C#N [Example 110, (R)-2-(3-(2H-1,2,3-triazol-2-yl)phenylamino)-6-(1-amino-4-methylpentan-2-ylamino)-5-cyanonicotinamide] |
